Measurements: patent US11731977B2, “SGC stimulators” (Cyclerion Therapeutics, Inc., priority 2016, dated 2023)

Biological target: T1, sGC enzyme (Homo sapiens, UniProt Q02108+Q02153)
T1 construct: sGC enzyme activity values in HEK cells, determined by the GloSensor assay; host or cells: HEK293 cells stably expressing GloSensor 40F cGMP biosensor
T1 sequence (Q02153 1-619): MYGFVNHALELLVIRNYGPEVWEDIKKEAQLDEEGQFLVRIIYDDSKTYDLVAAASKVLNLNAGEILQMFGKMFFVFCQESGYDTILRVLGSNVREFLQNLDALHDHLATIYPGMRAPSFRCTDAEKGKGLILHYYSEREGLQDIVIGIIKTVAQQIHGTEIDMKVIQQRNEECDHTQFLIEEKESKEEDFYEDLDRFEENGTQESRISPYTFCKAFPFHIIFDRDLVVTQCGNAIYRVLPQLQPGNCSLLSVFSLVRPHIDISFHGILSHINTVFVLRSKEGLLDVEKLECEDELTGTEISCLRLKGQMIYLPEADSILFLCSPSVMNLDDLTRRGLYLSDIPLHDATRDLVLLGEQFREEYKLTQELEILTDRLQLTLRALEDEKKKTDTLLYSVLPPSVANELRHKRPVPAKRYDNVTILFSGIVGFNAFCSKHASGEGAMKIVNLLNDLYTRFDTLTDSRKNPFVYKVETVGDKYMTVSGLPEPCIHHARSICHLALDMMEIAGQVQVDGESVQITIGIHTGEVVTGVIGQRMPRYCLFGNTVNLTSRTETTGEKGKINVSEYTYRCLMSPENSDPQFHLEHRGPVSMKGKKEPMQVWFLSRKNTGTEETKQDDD
T1 sequence (Q02108 1-690): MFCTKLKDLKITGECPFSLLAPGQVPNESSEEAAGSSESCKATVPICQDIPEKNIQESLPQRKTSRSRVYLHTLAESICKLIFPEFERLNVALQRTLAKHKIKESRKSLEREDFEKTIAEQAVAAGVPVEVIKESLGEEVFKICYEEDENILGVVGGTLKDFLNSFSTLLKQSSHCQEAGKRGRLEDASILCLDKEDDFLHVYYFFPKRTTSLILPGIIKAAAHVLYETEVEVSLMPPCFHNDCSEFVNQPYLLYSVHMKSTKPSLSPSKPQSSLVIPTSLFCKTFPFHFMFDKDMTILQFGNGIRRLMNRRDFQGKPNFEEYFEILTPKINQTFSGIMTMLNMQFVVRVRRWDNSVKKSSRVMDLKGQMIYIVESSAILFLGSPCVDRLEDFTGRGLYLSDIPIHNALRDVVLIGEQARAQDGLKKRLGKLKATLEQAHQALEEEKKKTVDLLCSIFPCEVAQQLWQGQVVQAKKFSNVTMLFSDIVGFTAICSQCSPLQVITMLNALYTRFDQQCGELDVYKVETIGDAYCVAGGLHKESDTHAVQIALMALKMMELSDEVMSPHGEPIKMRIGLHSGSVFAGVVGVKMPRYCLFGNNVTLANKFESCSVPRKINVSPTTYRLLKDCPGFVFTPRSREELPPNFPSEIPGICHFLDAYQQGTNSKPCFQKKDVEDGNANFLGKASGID
Experiment: cGMP GloSensor cell-based assay, 384-well format (Example 2a)
Details: HEK293 GloSensor 40F cGMP cells; 10 μM DETA-NONOate; 50% of high control (30 μM Compound Y); read-out: Abs EC50
From the text: Human embryonic kidney cells (HEK293) cells expressing GloSensor™ 40F cGMP (Part No: CS182801, Promega) were used to evaluate the activity of test compounds. The luminescent biosensors (engineered luciferase) that were incorporated into these cells detect cGMP formed by the compounds stimulating the sGC enzyme and emit luminescence.
cGMP GloSensor cells were maintained in Dulbecco's Modification of Eagle's Medium (DMEM) supplemented with fetal bovine serum (FBS, 10% final) and hygromycine (200 ug/ml). The day before assay, cells were plated in DMEM with 10% FBS in a 50 μL volume at a density of 1.5×10^4 cells/well in a poly-D-lysine coated 384-well flat white-bottom plate (Corning Cat No 35661). Cells were incubated overnight at 37° C. in a humidified chamber with 5% CO2. The next day, medium was removed and cells were replaced with 40 ul/well of GloSensor™, 2 mM (Promega Cat No E1291). Cells were treated for 90 minutes at 25° C. to allow the substrate to equilibrate in the cells. Test compounds and Diethylenetriamine NONOate (DETA-NONOate, or DETA-NO) was diluted to 3 mM (20×) in serum-free CO2 independent medium and serially diluted at 4× dilutions to create 5× dose curve from which 10 ul was added to the wells (x μM concentration for test compound solution and 10 μM concentration for DETA-NONOate solution; wherein x is one of the following final concentrations: 30000 nM, 7500 nM, 1875 nM, 468.8 nM, 117.2 nM, 29.29 nM, 7.320 nM, 1.830 nM, 0.460 nM, 0.114 nM, and 0.029 nM).
For the kinetics studies, luminescense was measured right away for 0.2 sec per well with Envision (Perkin Elmer). For endpoint SAR screening, data were collected after 55 min incubation at room temperature.
Data were normalized to a high control using the following equation: 100*(Sample−Low Control)/(High Control−Low Control), where the low control is the average of 16 samples treated with 1% DMSO, and the high control is the average of 16 samples treated with 30 μM of Compound Y depicted below. Data were fit using a 4-parameter fit (log(agonist) vs. response—variable slope) using GraphPad Prism Software v.5. n=2 for all compounds. The Absolute (Abs) EC50 was interpolated from the curve fit and is defined as the concentration at which a given compound elicits 50% of the high control response after data normalization as indicated above. Compounds failing to elicit a minimum response of 50% are reported as >30 μM or ND. For compounds run in duplicate or n higher than 2, the result herein given is the geometric mean of the several results obtained.

Structure (SMILES) | EC50
Cc1c(F)cc(Cc2nc(-c3nc(C(F)(F)F)n[nH]3)cn3ccnc23)cc1F [Compound I-34, 8-(3,5-Difluoro-4-methylbenzyl)-6-(3-(trifluoromethyl)-1H-1,2,4-triazol-5-yl)imidazo[1,2-a]pyrazine] | ≤ 0.1 µM
Cc1nc(-c2cn3ccnc3c(Cc3ccccc3F)n2)nn1Cc1cccc(F)c1 [Compound I-47, 8-(2-Fluorobenzyl)-6-(1-(3-fluorobenzyl)-5-methyl-1H-1,2,4-triazol-3-yl)imidazo[1,2-a]pyrazine] | ≤ 0.1 µM
Fc1ccccc1Cc1nc(-c2nc(C(F)F)n[nH]2)cn2ncnc12 [Compound I-26, 6-(3-(Difluoromethyl)-1H-1,2,4-triazol-5-yl)-8-(2-fluorobenzyl)-[1,2,4]triazolo[1,5-a]pyrazine] | ≤ 0.1 µM
Fc1cc(F)cc(Cc2nc(-c3nc(C(F)F)n[nH]3)cn3ncnc23)c1 [Compound I-25, 8-(3,5-Difluorobenzyl)-6-(3-(difluoromethyl)-1H-1,2,4-triazol-5-yl)-[1,2,4]triazolo[1,5-a]pyrazine] | ≤ 0.1 µM
CCn1nc(-c2cn3ccnc3c(Cc3ccccc3F)n2)nc1C [Compound I-53, 6-(1-Ethyl-5-methyl-1H-1,2,4-triazol-3-yl)-8-(2-fluorobenzyl)imidazo[1,2-a]pyrazine] | 0.1 to 1 µM
Cc1nc(-c2cn3ccnc3c(Cc3ccccc3F)n2)n(Cc2ccc(F)cc2)n1 [Compound I-42, 8-(2-fluorobenzyl)-6-(1-(4-fluorobenzyl)-3-methyl-1H-1,2,4-triazol-5-yl)imidazo[1,2-a]pyrazine] | > 1 µM
Cc1cn2cc(-c3nc(C(F)F)n[nH]3)nc(Cc3ccccc3F)c2n1 [Compound I-32, 6-(3-(Difluoromethyl)-1H-1,2,4-triazol-5-yl)-8-(2-fluorobenzyl)-2-methylimidazo[1,2-a]pyrazine] | > 1 µM
Cc1nc(-c2cn3ccnc3c(Cc3ccccc3F)n2)nn1CCC(F)(F)F [Compound I-54, 8-(2-Fluorobenzyl)-6-(5-methyl-1-(3,3,3-trifluoropropyl)-1H-1,2,4-triazol-3-yl)imidazo[1,2-a]pyrazine] | 0.1 to 1 µM
Fc1ccccc1Cc1nc(-c2nc(Cl)n[nH]2)cn2ccnc12 [Compound I-62, 6-(3-Chloro-1H-1,2,4-triazol-5-yl)-8-(2-fluorobenzyl)-imidazo[1,2-a]pyrazine] | ≤ 0.1 µM
Nc1nc(-c2cn3ccnc3c(Cc3ccccc3F)n2)nn1Cc1cccc(F)c1 [Compound I-58, 1-(3-Fluorobenzyl)-3-(8-(2-fluorobenzyl)imidazo[1,2-a]pyrazin-6-yl)-1H-1,2,4-triazol-5-amine] | ≤ 0.1 µM
Fc1cc(F)cc(Cc2nc(-c3nc(C(F)F)n[nH]3)cn3ccnc23)c1 [Compound I-30, 8-(3,5-Difluorobenzyl)-6-(3-(difluoromethyl)-1H-1,2,4-triazol-5-yl)imidazo[1,2-a]pyrazine] | ≤ 0.1 µM
Fc1cccc(Cc2nc(-c3nc(C(F)(F)F)n[nH]3)cn3ncnc23)c1 [Compound I-22, 8-(3-Fluorobenzyl)-6-(3-(trifluoromethyl)-1H-1,2,4-triazol-5-yl)-[1,2,4]triazolo[1,5-a]pyrazine] | ≤ 0.1 µM
N#Cc1cnc2c(Cc3ccccc3F)nc(-c3nc(C(F)(F)F)n[nH]3)cn12 [Compound I-70, 8-(2-Fluorobenzyl)-6-(3-(trifluoromethyl)-1H-1,2,4-triazol-5-yl)imidazo[1,2-a]pyrazine-3-carbonitrile] | 0.1 to 1 µM
Fc1ccccc1Cc1nc(-c2nc(C(F)(F)F)n[nH]2)cn2c(Cl)cnc12 [Compound I-67, 3-Chloro-8-(2-fluorobenzyl)-6-(3-(trifluoromethyl)-1H-1,2,4-triazol-5-yl)imidazo[1,2-a]pyrazine] | ≤ 0.1 µM
CN(C)c1n[nH]c(-c2cn3ccnc3c(Cc3ccccc3F)n2)n1 [Compound I-65, 5-(8-(2-fluorobenzyl)imidazo[1,2-a]pyrazin-6-yl)-N,N-dimethyl-1H-1,2,4-triazol-3-amine] | 0.1 to 1 µM
Fc1cccc(Cc2nc(-c3nc(C(F)F)n[nH]3)cn3ncnc23)c1 [Compound I-21, 6-(3-(Difluoromethyl)-1H-1,2,4-triazol-5-yl)-8-(3-fluorobenzyl)-[1,2,4]triazolo[1,5-a]pyrazine] | ≤ 0.1 µM
Cc1nc(-c2cn3ccnc3c(Cc3ccccc3F)n2)nn1Cc1ccc(F)cc1 [Compound I-41, 8-(2-Fluorobenzyl)-6-(1-(4-fluorobenzyl)-5-methyl-1H-1,2,4-triazol-3-yl)imidazo[1,2-a]pyrazine] | ≤ 0.1 µM
Fc1ccccc1Cc1nc(-c2nc(C(F)(F)F)n[nH]2)cn2c(F)cnc12 [Compound I-68, 3-Fluoro-8-(2-fluorobenzyl)-6-(3-(trifluoromethyl)-1H-1,2,4-triazol-5-yl)imidazo[1,2-a]pyrazine] | ≤ 0.1 µM
Fc1cccc(F)c1Cc1nc(-c2nc(C(F)(F)F)n[nH]2)cn2ccnc12 [Compound I-19, 8-(2,6-Difluorobenzyl)-6-(3-(trifluoromethyl)-1H-1,2,4-triazol-5-yl)imidazo[1,2-a]pyrazine] | > 1 µM
Cc1nc(-c2cn3ccnc3c(Cc3ccccc3F)n2)nn1CC(=O)C(C)(C)C [Compound I-48, 1-(3-(8-(2-Fluorobenzyl)imidazo[1,2-a]pyrazin-6-yl)-5-methyl-1H-1,2,4-triazol-1-yl)-3,3-dimethylbutan-2-one] | ≤ 0.1 µM
Cn1cnc2c(Cc3ccccc3F)nc(-c3nc(C(F)(F)F)n[nH]3)cc21 [Compound I-36, 4-(2-Fluorobenzyl)-1-methyl-6-(3-(trifluoromethyl)-1H-1,2,4-triazol-5-yl)-1H-imidazo[4,5-c]pyridine] | > 1 µM
Cc1cn2cc(-c3nc(C(F)(F)F)n[nH]3)nc(Cc3ccccc3F)c2n1 [Compound I-31, 8-(2-Fluorobenzyl)-2-methyl-6-(3-(trifluoromethyl)-1H-1,2,4-triazol-5-yl)imidazo[1,2-a]pyrazine] | 0.1 to 1 µM
Cc1n[nH]c(-c2cn3ccnc3c(Cc3ccccc3F)n2)n1 [Compound I-4, 8-(2-fluorobenzyl)-6-(3-methyl-1H-1,2,4-triazol-5-yl)imidazo[1,2-a]pyrazine] | 0.1 to 1 µM
Fc1ccc(F)c(Cc2nc(-c3nc(C(F)(F)F)n[nH]3)cn3ncnc23)c1 [Compound I-33, 8-(2,5-Difluorobenzyl)-6-(3-(trifluoromethyl)-1H-1,2,4-triazol-5-yl)-[1,2,4]triazolo[1,5-a]pyrazine] | ≤ 0.1 µM
